Laboratory results reported in ChEMBL document CHEMBL2203004, “New diterpene furanoids from the Antarctic lichen Huea sp” (Bioorg Med Chem Lett, 2012).
Calls of active or inactive are those of the source. The calls are words filed in the database; no cut-off is given here.

Experiments:
[1] = target: T1, Tyrosine-protein phosphatase non-receptor type 1 (Homo sapiens) (UniProt P18031); assay: Noncompetitive inhibition of human recombinant PTP1B using p-nitrophenyl phosphate as substrate at 5.57 to 14.87 uM after 30 mins by Lineweaver-Burk plot analysis
T1 sequence (whole entry): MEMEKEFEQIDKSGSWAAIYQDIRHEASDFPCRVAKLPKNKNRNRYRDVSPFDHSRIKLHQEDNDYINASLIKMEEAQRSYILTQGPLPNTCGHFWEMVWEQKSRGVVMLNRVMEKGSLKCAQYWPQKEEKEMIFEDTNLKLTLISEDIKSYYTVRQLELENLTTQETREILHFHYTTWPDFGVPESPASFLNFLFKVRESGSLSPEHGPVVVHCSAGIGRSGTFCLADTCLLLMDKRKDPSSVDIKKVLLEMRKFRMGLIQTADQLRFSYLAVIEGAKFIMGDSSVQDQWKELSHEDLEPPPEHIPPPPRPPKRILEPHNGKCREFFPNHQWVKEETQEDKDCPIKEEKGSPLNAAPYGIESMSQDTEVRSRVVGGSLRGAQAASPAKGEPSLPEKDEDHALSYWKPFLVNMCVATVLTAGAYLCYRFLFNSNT

[2] = target: T1, Tyrosine-protein phosphatase non-receptor type 1 (Homo sapiens); assay: (§1) Inhibition of human recombinant PTP1B using p-nitrophenyl phosphate as substrate after 30 mins by spectrophotometric analysis
[3] = target: T2, Tyrosine-protein phosphatase non-receptor type 1 (Homo sapiens, UniProt P18031); assay: as §1
T2 sequence (P18031 whole entry): T1 sequence (whole entry)

inhibition [1]: Active
inhibition [2]: Dose-dependent effect
IC50 [3]: 13.9 µM
Compound: C=CC(C)(O)C/C=C/[C@@]1(C)CC[C@@H](C(C)(O)CC(=O)C=C(C)C)O1 (relative stereo)
